These results are taken from patent EP0466944A1, “4H-3,1-BENZOXAZIN-4-ONE COMPOUND AND ELASTASE INHIBITOR COMPOSITION CONTAINING THE SAME” (TEIJIN LIMITED, priority 1990, dated 1991).

The experiment relates to human purulent sputum elastase. The experiment is described as follows: Inhibitory effect on pulmonary hemorrhage in elastase-given hamsters (hemoglobin in bronchoalveolar lavage fluid). Particulars: 1 mg/kg through respiratory tract 30 minutes before elastase (1 mg/kg), lavage three hours after elastase. The class given is in vivo, Syrian Golden Hamsters. On the procedure: The efficacy of the compounds of the invention in vivo can be evaluated by the following procedures. In other words, a certain dose of a solution or dispersion of the compound of the invention is given through the respiratory tract, then human purulent sputum elastase is given through the respiratory tract after a certain time. The bronchoalveolar lavage were performed at a definite time after the elastase treatment and the hemoglobin is determined in the bronchoalveolar lavage fluids. The pulmonary hemorrhage is compared with that when a solution containing no compound of the present invention is given to measure the hemorrhage-inhibitory effect of the compounds of the present invention (Bonney et al., J. Cellular Biochemistry, 39, 47 - 53, (1989)).
The compounds according to the invention listed in Table 3 were dissolved or dispersed in 0.01 M phosphate-buffered physiological saline solution (pH 7.5), given to Syrian Golden Hamsters (body weight: about 100 g) 1 mg/kg through respiratory tract, then 30 minutes later, human purulent sputum elastase was given (1 mg/kg) through respiratory tract. Three hours after elastase administration, the animals were sacrificed by bleeding to open their chests and the bronchoalveolar lavage was performed with physiological saline solution. The hemoglobin in the lavage fluid was determined by the cyanmethemoglobin method. […]

With `Cc1cc(NC(=O)C(Cc2ccccc2)NC(=O)OCc2ccccc2)cc2nc(NC(C)C)oc(=O)c12` (stereo not shown) [Comparative example 1], the “inhibition rate of pulmonary hemorrhage” value was “weak”.
